Results as given in US9328122B2, “7-substituted Hanfangichin B derivative, and preparation method and use thereof” (HANGZHOU BENSHENG PHARMACEUTICAL CO., LTD., priority 2012, dated 2016).
In brackets after ≈: the same amount, converted by molar mass.

Experiments:
tumor = experiment: Antitumor activity compared with fangchinoline, overall statement; assay type: cell-based; details: tumor type not specified
[1] = tested on: Jurkat (acute lymphoblastic leukemia) cells; experiment: MTT cell growth inhibition, leukemia cells; assay type: cell-based, human
Description: (§1) Leukemia cell lines: leukemia cell lines: K562adr (drug-resistant, chronic myeloid leukemia, CML), NB4 (acute promyelocytic leukemia, AML), Kasumi-1 (acute myeloid leukemia M2 type, AML-M2), Jurkat (acute lymphoblastic leukemia, ALL), all of which were donated by Cancer Research Institute of Zhejiang University, China; and H9 (acute lymphoblastic leukemia, ALL), which was purchased from China Center for Type Culture Collection.
(§2) Reagents: The standard sample of fangchinoline (FAN) was purchased from Ci Yuan Biotechnology Co., Ltd., Shaanxi, China; and the 7-substituted fangchinoline derivatives according to the present invention.
(§3) 6000 well-growing leukemia cells were obtained and inoculated into wells of a 96-well cell culture plate. The culture medium was a RPMI-1640 cell culture medium containing 10% fetal bovine serum. After adding the 7-substituted fangchinoline derivatives of different concentrations the next day and mixing uniformly, the plate was placed in a carbon dioxide cell incubator (5% CO2) at 37° C. and incubating for 72 hours. Then the viable cell concentration was determined by the MTT method.

[2] = tested on: H9 (acute lymphoblastic leukemia) cells; experiment: MTT cell growth inhibition, leukemia cells; assay type: cell-based, human
Description: as §1, §2, §3

[3] = tested on: Kasumi-1 (acute myeloid leukemia M2 type) cells; experiment: MTT cell growth inhibition, leukemia cells; assay type: cell-based, human; details: Homo sapiens, Kasumi-1, 72 h, MTT
Description: as §1, §2, §3

[4] = tested on: NB4 (acute promyelocytic leukemia) cells; experiment: MTT cell growth inhibition, leukemia cells; assay type: cell-based; details: Homo sapiens, NB4, 72 h, MTT
Description: as §1, §2, §3

[5] = tested on: K562/ADR (K562adr, drug-resistant chronic myeloid leukemia) cells; experiment: MTT cell growth inhibition, leukemia cells; assay type: cell-based; details: Homo sapiens, K562/ADR, 72 h, MTT
Description: as §1, §2, §3

[6] = tested on: CaEs-17 (esophageal cancer) cells; experiment: MTT cell growth inhibition, solid tumor cells; assay type: cell-based, human; details: Homo sapiens, CaEs17, CaEs-17, 72 h, MTT
Description: (§4) Hep-2 (laryngeal carcinoma), A549 (human lung cancer), CaES-17 (esophageal cancer cell), PC-3 (prostate cancer), CNE (nasopharyngeal carcinoma cell) and SK-OV-3 (ovarian cancer cell), all of which were purchased from China Center For Type Culture Collection; RKO (human colon adenocarcinoma cell), MGC-803 (human gastric cancer cell), MG-63 (osteosarcoma), and U87-MG (malignant glioma cell), all of which were purchased from Fuxiang Bio-tech Co. Ltd., Shanghai, China; PANC-1 (pancreatic cancer), Becap37 (human breast cancer cell), Hela (human cervical cancer cell) and Hep G2 (human liver cancer cell), all of which were donated by Cancer Research Institute of Zhejiang University, China.
as §3, with “human solid tumor” for “leukemia”, “DMEM High Glucose” for “a RPMI-1640”, “serum. The plate was placed in a carbon dioxide cell incubator (5% CO2) at 37° C. and incubated for 24 hours.” for “serum.”, “added with” for “adding the”, “concentration” for “concentrations the next day”, “incubated” for “incubating”

[7] = tested on: PANC-1 (pancreatic cancer) cells; experiment: MTT cell growth inhibition, solid tumor cells; assay type: cell-based, human; details: Homo sapiens, PANC-1, 72 h, MTT
Description: as §4
as §3, with “human solid tumor” for “leukemia”, “DMEM High Glucose” for “a RPMI-1640”, “serum. The plate was placed in a carbon dioxide cell incubator (5% CO2) at 37° C. and incubated for 24 hours.” for “serum.”, “added with” for “adding the”, “concentration” for “concentrations the next day”, “incubated” for “incubating”

[8] = tested on: CNE (nasopharyngeal carcinoma) cells; experiment: MTT cell growth inhibition, solid tumor cells; assay type: cell-based, human; details: Homo sapiens, CNE, 72 h, MTT
Description: as §4
as §3, with “human solid tumor” for “leukemia”, “DMEM High Glucose” for “a RPMI-1640”, “serum. The plate was placed in a carbon dioxide cell incubator (5% CO2) at 37° C. and incubated for 24 hours.” for “serum.”, “added with” for “adding the”, “concentration” for “concentrations the next day”, “incubated” for “incubating”

[9] = tested on: SK-OV-3 (ovarian cancer) cells; experiment: MTT cell growth inhibition, solid tumor cells; assay type: cell-based, human; details: Homo sapiens, SK-OV-3, 72 h, MTT
Description: as §4
as §3, with “human solid tumor” for “leukemia”, “DMEM High Glucose” for “a RPMI-1640”, “serum. The plate was placed in a carbon dioxide cell incubator (5% CO2) at 37° C. and incubated for 24 hours.” for “serum.”, “added with” for “adding the”, “concentration” for “concentrations the next day”, “incubated” for “incubating”

[10] = tested on: PC-3 (prostate cancer) cells; experiment: MTT cell growth inhibition, solid tumor cells; assay type: cell-based, human; details: Homo sapiens, PC-3, 72 h, MTT
Description: as §4
as §3, with “human solid tumor” for “leukemia”, “DMEM High Glucose” for “a RPMI-1640”, “serum. The plate was placed in a carbon dioxide cell incubator (5% CO2) at 37° C. and incubated for 24 hours.” for “serum.”, “added with” for “adding the”, “concentration” for “concentrations the next day”, “incubated” for “incubating”

[11] = tested on: MGC-803 (human gastric cancer) cells; experiment: MTT cell growth inhibition, solid tumor cells; assay type: cell-based; details: MGC-803, 72 h, MTT
Description: as §4
as §3, with “human solid tumor” for “leukemia”, “DMEM High Glucose” for “a RPMI-1640”, “serum. The plate was placed in a carbon dioxide cell incubator (5% CO2) at 37° C. and incubated for 24 hours.” for “serum.”, “added with” for “adding the”, “concentration” for “concentrations the next day”, “incubated” for “incubating”

[12] = tested on: Hep G2 (human liver cancer) cells; experiment: MTT cell growth inhibition, solid tumor cells; assay type: cell-based; details: Homo sapiens, HepG2, Hep G2, 72 h, MTT
Description: as §4
as §3, with “human solid tumor” for “leukemia”, “DMEM High Glucose” for “a RPMI-1640”, “serum. The plate was placed in a carbon dioxide cell incubator (5% CO2) at 37° C. and incubated for 24 hours.” for “serum.”, “added with” for “adding the”, “concentration” for “concentrations the next day”, “incubated” for “incubating”

[13] = tested on: U87-MG (malignant glioma) cells; experiment: MTT cell growth inhibition, solid tumor cells; assay type: cell-based; details: Homo sapiens, U-87 MG, U87-MG, 72 h, MTT
Description: as §4
as §3, with “human solid tumor” for “leukemia”, “DMEM High Glucose” for “a RPMI-1640”, “serum. The plate was placed in a carbon dioxide cell incubator (5% CO2) at 37° C. and incubated for 24 hours.” for “serum.”, “added with” for “adding the”, “concentration” for “concentrations the next day”, “incubated” for “incubating”

[14] = tested on: Becap-37 (human breast cancer) cells; experiment: MTT cell growth inhibition, solid tumor cells; assay type: cell-based; details: Homo sapiens, Becap-37, 72 h, MTT
Description: as §4
as §3, with “human solid tumor” for “leukemia”, “DMEM High Glucose” for “a RPMI-1640”, “serum. The plate was placed in a carbon dioxide cell incubator (5% CO2) at 37° C. and incubated for 24 hours.” for “serum.”, “added with” for “adding the”, “concentration” for “concentrations the next day”, “incubated” for “incubating”

[15] = tested on: A549 (human lung cancer) cells; experiment: MTT cell growth inhibition, solid tumor cells; assay type: cell-based
Description: as §4
as §3, with “human solid tumor” for “leukemia”, “DMEM High Glucose” for “a RPMI-1640”, “serum. The plate was placed in a carbon dioxide cell incubator (5% CO2) at 37° C. and incubated for 24 hours.” for “serum.”, “added with” for “adding the”, “concentration” for “concentrations the next day”, “incubated” for “incubating”

[16] = tested on: Hep-2 (laryngeal carcinoma) cells; experiment: MTT cell growth inhibition, solid tumor cells; assay type: cell-based; details: Homo sapiens, Hep-2, 72 h, MTT
Description: as §4
as §3, with “human solid tumor” for “leukemia”, “DMEM High Glucose” for “a RPMI-1640”, “serum. The plate was placed in a carbon dioxide cell incubator (5% CO2) at 37° C. and incubated for 24 hours.” for “serum.”, “added with” for “adding the”, “concentration” for “concentrations the next day”, “incubated” for “incubating”

[17] = tested on: RKO (human colon adenocarcinoma) cells; experiment: MTT cell growth inhibition, solid tumor cells; assay type: cell-based; details: Homo sapiens, RKO, 72 h, MTT
Description: as §4
as §3, with “human solid tumor” for “leukemia”, “DMEM High Glucose” for “a RPMI-1640”, “serum. The plate was placed in a carbon dioxide cell incubator (5% CO2) at 37° C. and incubated for 24 hours.” for “serum.”, “added with” for “adding the”, “concentration” for “concentrations the next day”, “incubated” for “incubating”

[18] = tested on: MG-63 (osteosarcoma) cells; experiment: MTT cell growth inhibition, solid tumor cells; assay type: cell-based; details: Homo sapiens, MG-63, 72 h, MTT
Description: as §4
as §3, with “human solid tumor” for “leukemia”, “DMEM High Glucose” for “a RPMI-1640”, “serum. The plate was placed in a carbon dioxide cell incubator (5% CO2) at 37° C. and incubated for 24 hours.” for “serum.”, “added with” for “adding the”, “concentration” for “concentrations the next day”, “incubated” for “incubating”

[19] = tested on: Hela (human cervical cancer) cells; experiment: MTT cell growth inhibition, solid tumor cells; assay type: cell-based; details: Homo sapiens, Hela, 72 h, MTT
Description: as §4
as §3, with “human solid tumor” for “leukemia”, “DMEM High Glucose” for “a RPMI-1640”, “serum. The plate was placed in a carbon dioxide cell incubator (5% CO2) at 37° C. and incubated for 24 hours.” for “serum.”, “added with” for “adding the”, “concentration” for “concentrations the next day”, “incubated” for “incubating”

[20] = relative to fangchinoline, Table 1

COc1ccc2cc1Oc1ccc(cc1)C[C@H]1c3cc(c(OC)cc3CCN1C)Oc1c(OC(=O)c3ccc(N(C)C)cc3)c(OC)cc3c1[C@H](C2)N(C)CC3 [BS-FC-308]
antitumor activity compared with that of fangchinoline (tumor): significantly superior | IC50 ([1]; Homo sapiens, Jurkat, 72 h, MTT, read-out: IC50): 0.36 µg/mL (≈ 0.476 µM) | IC90 ([1]; Homo sapiens, Jurkat, 72 h, MTT, read-out: IC90): 1.62 µg/mL (≈ 2.14 µM) | anti-Jurkat activity increase over fangchinoline [1, 20]: more than 4 fold | IC50 ([2]; Homo sapiens, H9, 72 h, MTT, read-out: IC50): 0.7 µg/mL (≈ 0.926 µM) | IC90 ([2]; Homo sapiens, H9, 72 h, MTT, read-out: IC90): 1.8 µg/mL (≈ 2.38 µM) | anti-H9 activity increase over fangchinoline [2, 20]: > 3 fold | IC50 ([3]; read-out: IC50): 0.81 µg/mL (≈ 1.07 µM) | IC90 ([3]; read-out: IC90): 1.9 µg/mL (≈ 2.51 µM) | IC50 ([4]; read-out: IC50): 0.37 µg/mL (≈ 0.489 µM) | IC90 ([4]; read-out: IC90): 0.98 µg/mL (≈ 1.3 µM) | IC50 ([5]; read-out: IC50): 0.08 µg/mL (≈ 0.106 µM) | IC90 ([5]; read-out: IC90): 0.47 µg/mL (≈ 0.622 µM) | IC50 ([6]; read-out: IC50): 0.93 µg/mL (≈ 1.23 µM) | IC90 ([6]; read-out: IC90): 3.92 µg/mL (≈ 5.19 µM) | IC50 ([7]; read-out: IC50): 2.38 µg/mL (≈ 3.15 µM) | IC90 ([7]; read-out: IC90): 8.53 µg/mL (≈ 11.3 µM) | IC50 ([8]; read-out: IC50): 1.9 µg/mL (≈ 2.51 µM) | IC90 ([8]; read-out: IC90): 3.6 µg/mL (≈ 4.76 µM) | IC50 ([9]; read-out: IC50): 1.31 µg/mL (≈ 1.73 µM) | IC90 ([9]; read-out: IC90): 1.93 µg/mL (≈ 2.55 µM) | IC50 ([10]; read-out: IC50): 2.4 µg/mL (≈ 3.17 µM) | IC90 ([10]; read-out: IC90): 3.49 µg/mL (≈ 4.62 µM) | IC50 ([11]; read-out: IC50): 0.57 µg/mL (≈ 0.754 µM) | IC90 ([11]; read-out: IC90): 1.99 µg/mL (≈ 2.63 µM) | IC50 ([12]; read-out: IC50): 1.12 µg/mL (≈ 1.48 µM) | IC90 ([12]; read-out: IC90): 4.35 µg/mL (≈ 5.75 µM) | IC50 ([13]; read-out: IC50): 1.27 µg/mL (≈ 1.68 µM) | IC90 ([13]; read-out: IC90): 3.75 µg/mL (≈ 4.96 µM) | IC50 ([14]; read-out: IC50): 1.03 µg/mL (≈ 1.36 µM) | IC90 ([14]; read-out: IC90): 1.95 µg/mL (≈ 2.58 µM) | IC50 ([15]; Homo sapiens, A549, 72 h, MTT, read-out: IC50): 0.99 µg/mL (≈ 1.31 µM) | IC90 ([15]; Homo sapiens, A549, 72 h, MTT, read-out: IC90): 3.16 µg/mL (≈ 4.18 µM) | anti-A549 activity increase over fangchinoline ([15]; relative to fangchinoline, Table 2): more than 3 fold | IC50 ([16]; read-out: IC50): 3.08 µg/mL (≈ 4.07 µM) | IC90 ([16]; read-out: IC90): 6.05 µg/mL (≈ 8 µM) | IC50 ([17]; read-out: IC50): 0.71 µg/mL (≈ 0.939 µM) | IC90 ([17]; read-out: IC90): 1.51 µg/mL (≈ 2 µM) | IC50 ([18]; read-out: IC50): 1.3 µg/mL (≈ 1.72 µM) | IC90 ([18]; read-out: IC90): 1.8 µg/mL (≈ 2.38 µM) | IC50 ([19]; read-out: IC50): 0.89 µg/mL (≈ 1.18 µM) | IC90 ([19]; read-out: IC90): 1.9 µg/mL (≈ 2.51 µM)
